Test results: patent US10973912B2, “Treatment for myopathy” (Children's Medical Center Corporation, priority 2015, dated 2021)
Entries after “also recorded” stand apart in the source; their conditions may differ.

Columns and labels:
wild-type mouse myotubes = assay: Calcium imaging, caffeine dose response of depolarization-induced calcium release; format: cell-based, mouse (C57BL/6N); conditions: wild-type background, cultured 5 days with compound
Method: Tetanic forces were measured following stimulation with 9 biphasic, 200 μs square-wave pulses at 300 Hz (WT-DMSO: 45.6±4.2 kPa, n=5; WT-NIF: 52.8±4.1 kPa, n=5; ryr1b-DMSO: 11.4±1.3 kPa, n=7; ryr1b-NIF: 25.4±4.0 kPa, n=7). Significance was determined by a one-way ANOVA (F=29.61, P<0.0001), followed by pairwise Tukey's HSD post hoc tests. […] Non-linear regression data of curves were not statistically different, as determined by an extra sum-of-squares F test (P=1.0).
Primary myoblasts from C57BL/6N mice were isolated and differentiated as described previously^39. Calcium imaging was performed 5 days after differentiation in myotubes loaded with 3 μM Fluo-4-AM (Life Technologies). Myotubes were imaged in imaging buffer (125 mM NaCl, 5 mM KCl, 2 mM CaCl2, 1.2 mM MgSO4, 6 mM glucose, 2 mM Ca^2+, 25 mM Hepes/Tris, pH 7.4) at 490-500 nm with a Stanford Photonics 10 bit digital intensified CCD using a DG4 multi-wavelength light source. Fluorescent emission at 510 was acquired and analyzed using QED Imaging software (QED Software, Pittsburgh, Pa., USA) from regions of interest within each myotube at 30 frames per second. Sensitivity to K^+-depolarization and caffeine-activation were determined by a 5 second perfusion with 5-6 volumes of KCl (10 mM to 60 mM) or caffeine (3 mM to 40 mM). […]

phosphorylated Stat3 = assay: Western blot of phosphorylated Stat3 at 5 dpf; format: in vivo, zebrafish (Danio rerio); conditions: 10 μg/mL, normalized to β-Actin
Method: In two independent experiments, two pools of 20 larvae from heterozygous ryr1b matings were treated with DMSO or with one of three different concentrations of NIF (1.0-100.0 μg/mL) at 1 dpf and evaluated in terms of touch-evoked escape behaviors at 5 dpf (n=40). Following phenotypic scoring, all living embryos were genotyped using three-primer genomic PCR. Swimming scores for larvae genotype-confirmed as ryr1b homozygous mutants are shown as a percentage of the total number of living larvae in each dose category: 1=poor swimming; 2 or 3=moderate or wild-type swimming. NIF improved mobility of ryr1b mutants at a dose of 10 μg/mL. […] Phospho-Stat3 band intensities were normalized to β-Actin control bands and quantified in Image J (NIH).
Western blotting was performed on groups of 50-100 wild-type or mutant zebrafish larvae at 5 dpf. […] Phospho-Stat3 band intensities were normalized to control bands and quantified in Image J (NIH).
To determine whether zebrafish stat3 is differentially expressed in the wild-type and Ryr1-deficient background, quantitative real-time RT-PCR was performed using fluorescently tagged Taqman probes.

ryr1b mutants = assay: Kaplan-Meier survival of ryr1b mutants; format: in vivo, zebrafish (Danio rerio); conditions: 10 μg/mL from 1 to 50 dpf
Method: Kaplan-Meier survival curves of ryr1b mutants treated with either DMSO or NIF (10 μg/mL) from 1 to 50 dpf. Mutants were sorted from unaffected controls at 5 dpf using a touch-evoked escape behavior assay. Untreated fish all died by 35 days of life. Median survival of DMSO-versus NIF-treated mutants was 15.0 and 13.0 days, respectively.
In addition to their muscular defects, ryr1b mutants die prematurely^30. To examine whether long-term treatment with NIF positively impacts the life span of ryr1b mutants, affected larvae (selected at 5 dpf by touch-evoked escape behavior assay) were treated with compound from 1 to 50 dpf.

ryr1b zebrafish = assay: Activity monitoring (Noldus Daniovision), spontaneous swimming at 20 dpf; format: in vivo, zebrafish (Danio rerio); conditions: long-term treatment
Method: In FIG. 10A, body angles of ryr1b mutants after 20 days of NIF treatment (10.0 μg/mL) are corrected and statistically indistinguishable from wild-type controls. […] Angles were measured by first drawing/extending straight lines between the eyes of the larva as well as along the midline of the trunk (shown by dotted red lines). The angle of intersection was determined using Adobe Photoshop CS3 software (WT-DMSO: 179.1±0.9°, n=6; WT-NIF: 176.8±1.1°, n=6; ryr1b-DMSO: 142.6±6.2°, n=11; ryr1b-NIF: 174.4±2.0°, n=4). Significance was determined by a one-way ANOVA (F=13.60, P<0.0001), followed by pairwise Tukey's HSD post hoc tests. […] Significance was determined by a one-way ANOVA (F=10.03, P=0.0009), followed by pairwise Tukey's HSD post hoc tests. […]
Zebrafish behavioral parameters were defined using the Noldus Daniovision activity monitoring system. […] Swimming behaviors were recorded over the entire 2.0-hour period with an infrared light source. […] Behavioral parameters recorded include frequency, mean velocity, total distance, and cumulative duration of movement, and reflect the average of all larvae in an experimental group.
Next, to determine if long-term NIF treatment affects ryr1b motor functions, spontaneous swimming behaviors of 20 dpf larvae were quantified using the Noldus Daniovision. […]

Structure (SMILES): O=C(N/N=C/c1ccc([N+](=O)[O-])o1)c1ccc(O)cc1 [Nifuroxazide]
- calcium release in response to caffeine (wild-type mouse myotubes): only very modest increases in calcium release
- levels of phosphorylated Stat3 protein (phosphorylated Stat3): larger decrease in ryr1b mutants than in unaffected controls
- survival of ryr1b mutants (ryr1b mutants; listed as NIF): did not significantly differ; also recorded: two affected fish treated with NIF survived until termination of the study
- median survival (ryr1b mutants; ryr1b mutants, DMSO 15.0 days, log-rank P=0.5): 13.0 days
- distance travelled during 2.0-hour period (ryr1b zebrafish): large and robust increase on the distance travelled by ryr1b zebrafish
